Measured values taken from US20250213735A1, “NEUROPEPTIDE Y1 RECEPTOR (NPY1R) TARGETED THERAPEUTICS AND USES THEREOF” (Radionetics Oncology, Inc., priority 2023, published 2025).

target: hNPY1R (Homo sapiens (Human), UniProt P25929); experiment: NPY1R binding assay (SK-N-MC membrane, [125I]-Peptide YY competition); details: crude SK-N-MC membranes endogenously expressing NPY1R; [125I]-Peptide YY (human) 0.05 nM; 120 min at room temperature; read-out: hNPY1R binding Ki;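 further: bound radioligand separated by filtration over GF/C filter plates and counted, Ki obtained by non-linear regression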
Sequence (P25929 whole entry): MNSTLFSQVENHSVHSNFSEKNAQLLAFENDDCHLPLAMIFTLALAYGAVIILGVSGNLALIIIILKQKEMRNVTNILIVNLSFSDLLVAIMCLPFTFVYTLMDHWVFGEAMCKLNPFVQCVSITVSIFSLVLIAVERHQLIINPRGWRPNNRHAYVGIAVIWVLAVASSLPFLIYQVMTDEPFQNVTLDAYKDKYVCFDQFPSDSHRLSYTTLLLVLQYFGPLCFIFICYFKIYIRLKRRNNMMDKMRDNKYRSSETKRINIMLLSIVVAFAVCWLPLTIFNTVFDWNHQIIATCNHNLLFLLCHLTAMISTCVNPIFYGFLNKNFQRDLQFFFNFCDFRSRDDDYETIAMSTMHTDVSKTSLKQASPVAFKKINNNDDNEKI
Method: Crude membrane fractions are prepared from SK-N-MC cells endogenously expressing the NPY1R receptor. The cells are grown to 85-100% confluence on standard tissue culture dishes in Eagle's Minimum Essential Medium supplemented with 10% dialyzed FBS. To prepare membranes, cells are scraped and collected in 1× Dulbecco's phosphate buffered saline and then pelleted at 1000 RPM's. The cell pellet is reconstituted in membrane preparation buffer (20 mM HEPES, 6 mM MgCl2 and 1 mM EGTA, protease inhibitor tablets, pH 7.4) and placed in a cell disruption vessel at 1000 PSI for 30 minutes on ice. The pressurized contents are then released and spun down at 1000 RPMs and the supernatant is collected and further centrifuged at 15,000 RPMs to pellet the membranes. The membrane pellet is resuspended in membrane preparation buffer, snap frozen and stored at −80° C. for later use.
Assay contents are then filtered through unifilter GF/C microplates and washed with 9×400 μl of cold wash buffer (25 mM HEPES, 5 mM MgCl2, 1 mM CaCl2), 500 mM NaCl, 0.1% Tween-20, pH 7.4). Assay plates are read using a Top Count NXT and Ki values for compounds are determined using a GraphPad Prism 6 non-linear regression analysis.

First: N=C(N)NCCC[C@@H](NC(=O)C(c1ccccc1)N1CCN(c2ccccc2)CC1)C(=O)NCc1ccc(O)cc1 (stereo partly drawn) [compound 76, (2R)-5-guanidino-N-(4-hydroxybenzyl)-2-(2-phenyl-2-(4-phenylpiperazin-1-yl)acetamido)pentanamide]
Second: N=C(N)NCCC[C@@H](NC(=O)[C@H](c1ccccc1)N1Cc2ccccc2C1)C(=O)NCc1ccc(O)cc1 [compound 70, (R)-5-guanidino-N-(4-hydroxybenzyl)-2-((S)-2-(isoindolin-2-yl)-2-phenylacetamido)pentanamide]
The Ki of the first is higher: > 1000 nM for the first, 10 to 100 nM for the second.

`CCC(=O)NCCNC(=O)/N=C(/N)NCCC[C@@H](NC(=O)[C@H](c1ccc(OCCCN(C)CCCCCNC(=O)CN2CCN(CC(=O)O)CCN(CC(=O)O)CCN(CC(=O)O)CC2)cc1)N1Cc2ccccc2C1)C(=O)NCc1c(F)cc(O)cc1F` [compound 56, 2,2′,2″-(10-(2-((5-((3-(4-((1S,4R,Z)-9-amino-4-((2,6-difluoro-4-hydroxybenzyl)carbamoyl)-1-(isoindolin-2-yl)-2,11,16-trioxo-3,8,10,12,15-pentaazaoctadec-9-en-1-yl)phenoxy)propyl)(methyl)amino)pentyl)amino)-2-oxoethyl)-1,4,7,10-tetraazacyclododecane-1,4,7-triyl)triacetic acid] and `CCC(=O)NCCNC(=O)/N=C(/N)NCCC[C@@H](NC(=O)[C@H](c1ccc(OCCCNC(=O)CCNC(=O)CN2CCN(CC(=O)O)CCN(CC(=O)O)CCN(CC(=O)O)CC2)cc1)N1Cc2ccccc2C1)C(=O)NCc1c(F)cc(O)cc1F` [compound 47, 2,2′,2″-(10-(2-((3-((3-(4-((1S,4R,Z)-9-amino-4-((2,6-difluoro-4-hydroxybenzyl)carbamoyl)-1-(isoindolin-2-yl)-2,11,16-trioxo-3,8,10,12,15-pentaazaoctadec-9-en-1-yl)phenoxy)propyl)amino)-3-oxopropyl)amino)-2-oxoethyl)-1,4,7,10-tetraazacyclododecane-1,4,7-triyl)triacetic acid] cannot be ordered by Ki: < 10 nM for the first, < 10 nM for the second.

`N=C(N)NCCC[C@@H](NC(=O)[C@H](c1ccccc1)N1Cc2ccccc2C1=O)C(=O)NCc1ccc(O)cc1` [71A, (R)-5-guanidino-N-(4-hydroxybenzyl)-2-((S)-2-(1-oxoisoindolin-2-yl)-2-phenylacetamido)pentanamide] and `N=C(N)NCCC[C@@H](NC(=O)[C@@H](c1ccccc1)N1Cc2ccccc2C1=O)C(=O)NCc1ccc(O)cc1` [71B, (R)-5-guanidino-N-(4-hydroxybenzyl)-2-((R)-2-(1-oxoisoindolin-2-yl)-2-phenylacetamido)pentanamide] cannot be ordered by Ki: > 1000 nM for the first, > 1000 nM for the second.

`CCC(=O)NCCNC(=O)/N=C(/N)NCCC[C@@H](NC(=O)[C@H](c1ccc(OCCCNC(=O)CCC(=O)NCCOCCNC(=O)CN2CCN(CC(=O)O)CCN(CC(=O)O)CCN(CC(=O)O)CC2)cc1)N1Cc2ccccc2C1)C(=O)NCc1c(F)cc(O)cc1F` [compound 43, 2,2′,2″-(10-(17-(4-((1S,4R,Z)-9-amino-4-((2,6-difluoro-4-hydroxybenzyl)carbamoyl)-1-(isoindolin-2-yl)-2,11,16-trioxo-3,8,10,12,15-pentaazaoctadec-9-en-1-yl)phenoxy)-2,10,13-trioxo-6-oxa-3,9,14-triazaheptadecyl)-1,4,7,10-tetraazacyclododecane-1,4,7-triyl)triacetic acid] and `CCC(=O)NCCNC(=O)/N=C(/N)NCCC[C@@H](NC(=O)[C@H](c1ccc(OCCNC(=O)CCCCCNC(=O)CN2CCN(CC(=O)O)CCN(CC(=O)O)CCN(CC(=O)O)CC2)cc1)N1Cc2ccccc2C1)C(=O)NCc1ccc(O)cc1` [compound 58, 2,2′,2″-(10-(2-((6-((2-(4-((1S,4R,Z)-9-amino-4-((4-hydroxybenzyl)carbamoyl)-1-(isoindolin-2-yl)-2,11,16-trioxo-3,8,10,12,15-pentaazaoctadec-9-en-1-yl)phenoxy)ethyl)amino)-6-oxohexyl)amino)-2-oxoethyl)-1,4,7,10-tetraazacyclododecane-1,4,7-triyl)triacetic acid] cannot be ordered by Ki: < 10 nM for the first, < 10 nM for the second.

First: CC(C)CC1CCN(C(C(=O)N[C@H](CCCNC(=N)N)C(=O)NCc2ccc(O)cc2)c2ccccc2)CC1 (stereo partly drawn) [compound 82, (2R)-5-guanidino-N-(4-hydroxybenzyl)-2-(2-(4-isobutylpiperidin-1-yl)-2-phenylacetamido)pentanamide]
Second: CCC(=O)NCCNC(=O)/N=C(/N)NCCC[C@@H](NC(=O)[C@H](c1cccc(NCCCNC(=O)CCOCCNC(=O)CN2CCN(CC(=O)O)CCN(CC(=O)O)CCN(CC(=O)O)CC2)c1)N1Cc2ccccc2C1)C(=O)NCc1ccc(O)cc1 [compound 20, 2,2′,2″-(10-(2-((2-(3-((3-((3-((1S,4R,Z)-9-amino-4-((4-hydroxybenzyl)carbamoyl)-1-(isoindolin-2-yl)-2,11,16-trioxo-3,8,10,12,15-pentaazaoctadec-9-en-1-yl)phenyl)amino)propyl)amino)-3-oxopropoxy)ethyl)amino)-2-oxoethyl)-1,4,7,10-tetraazacyclododecane-1,4,7-triyl)triacetic acid]
The Ki of the first is higher: 100 to 1000 nM for the first, < 10 nM for the second. The second binds more tightly here.

`CCC(=O)NCCNC(=O)/N=C(/N)NCCC[C@@H](NC(=O)C(c1cccc(NC(=O)CCCNC(=O)[C@@H](CO)NC(=O)CCNC(=O)CN2CCN(CC(=O)O)CCN(CC(=O)O)CCN(CC(=O)O)CC2)c1)N1Cc2ccccc2C1)C(=O)NCc1c(F)cc(O)cc1F` (single isomer, unassigned) [32A] and `CCNC(=O)/N=C(/N)NCCC[C@@H](NC(=O)[C@H](c1cccc(NCCCNC(=O)[C@H](N)CCCCNC(=O)CN2CCN(CC(=O)O)CCN(CC(=O)O)CCN(CC(=O)O)CC2)c1)N1Cc2ccccc2C1)C(=O)NCc1c(F)cc(O)cc1F` [compound 13, 2,2′,2″-(10-(2-(((R)-5-amino-6-((3-((3-((11R,14S,Z)-6-amino-11-((2,6-difluoro-4-hydroxybenzyl)carbamoyl)-14-(isoindolin-2-yl)-4,13-dioxo-3,5,7,12-tetraazatetradec-5-en-14-yl)phenyl)amino)propyl)amino)-6-oxohexyl)amino)-2-oxoethyl)-1,4,7,10-tetraazacyclododecane-1,4,7-triyl)triacetic acid] cannot be ordered by Ki: < 10 nM for the first, < 10 nM for the second.

For `CCC(=O)NCCNC(=O)/N=C(/N)NCCC[C@@H](NC(=O)[C@H](c1ccc(OCCCN2CCN(C3CCN(C(=O)CCCCCNC(=O)CN4CCN(CC(=O)O)CCN(CC(=O)O)CCN(CC(=O)O)CC4)CC3)CC2)cc1)N1Cc2ccccc2C1)C(=O)NCc1c(F)cc(O)cc1F` [compound 35, 2,2′,2″-(10-(2-((6-(4-(4-(3-(4-((1S,4R,Z)-9-amino-4-((2,6-difluoro-4-hydroxybenzyl)carbamoyl)-1-(isoindolin-2-yl)-2,11,16-trioxo-3,8,10,12,15-pentaazaoctadec-9-en-1-yl)phenoxy)propyl)piperazin-1-yl)piperidin-1-yl)-6-oxohexyl)amino)-2-oxoethyl)-1,4,7,10-tetraazacyclododecane-1,4,7-triyl)triacetic acid], the Ki was < 10 nM.
